Like-named read-outs stand apart in the source and are kept apart here. Some results are limits rather than exact numbers.

The values below come from article PMC2902711 (Toxicon : official journal of the International Society on …, 2010).

The test system of one series is Vero cells. As to conditions: for concentrations at which the compound was itself cytotoxic: African green monkey.
A further series deals with RTA. As to conditions: read-out: IC50 for RTA; cited from earlier work.
Series [1] concerns the target Shiga toxin type 1 subunit A (StxA1) (Bacteriophage H30, UniProt P10149). Description: biochemical. It counts as biochemical, Escherichia coli.

Chain of Shiga toxin type 1 subunit A (StxA1) (P10149 23-273 limits assumed): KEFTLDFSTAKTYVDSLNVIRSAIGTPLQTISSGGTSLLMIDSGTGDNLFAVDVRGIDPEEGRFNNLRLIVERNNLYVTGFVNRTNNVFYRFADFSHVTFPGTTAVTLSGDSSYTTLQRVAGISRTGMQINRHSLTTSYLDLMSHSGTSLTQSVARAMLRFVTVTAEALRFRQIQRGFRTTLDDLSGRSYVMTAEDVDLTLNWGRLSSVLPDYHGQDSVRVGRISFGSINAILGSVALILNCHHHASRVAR

`COC(=O)C(C)N1C(=O)S/C(=C/c2ccc(N3CCCCCC3)o2)C1=O` (stereo not drawn) [Compound 3, methyl 2-[(5E)-5-[[5-(azepan-1-yl)furan-2-yl]methylidene]-2,4-dioxo-1,3-thiazolidin-3-yl]propanoate]: the “concentrations at which the compound was itself cytotoxic” value (“concentrations” below) in the series on Vero cells is “less than 20 μM”. As to `Cc1nc2c(=O)[nH]c(N)nc2o1` [8-methyl-9-oxaguanine], the IC50 – broadly, the concentration at which inhibition is half-maximal – in the series with RTA was approximately 400 µM.

On to `O=C(OCc1ccc(F)cc1)c1cc(-c2ccco2)nc2ccccc12` [Compound 8, 4-fluorophenyl methyl 2-(furan-2-yl)quinoline-4-carboxylate], for which the 50% inhibitory concentration (IC50) in series [1] (read-out: StxA1 IC50) is 40 µM; in series [1] (read-out: apparent IC50 for StxA1), approximately 40 µM.

In the case of `Cc1ccc(/C=C/C(=O)NC2CCCc3ccccc32)o1` (stereo not drawn) [Compound 1, (E)-3-(5-methylfuran-2-yl)-N-(1,2,3,4-tetrahydronaphthalen-1-yl)prop-2-enamide], the half-inhibitory concentration (IC50) in series [1] was approximately 700 µM. The “cytotoxicity of the compound itself” value with Vero cells is reported as “did not exhibit significant cytotoxicity”. `CC(C)Nc1nc(C#N)nc(NC(C)C)n1` [Compound 2, 4,6-bis(propan-2-ylamino)-1,3,5-triazine-2-carbonitrile]: in the series with Vero cells, the “cytotoxicity of the compound itself” value is “moderately cytotoxic”. Turning to `O=C(CSc1nnc[nH]1)N(Cc1ccc(F)cc1)C1CCCCC1` [Compound C17-1, N-cyclohexyl-N-[(4-fluorophenyl)methyl]-2-(4H-1,2,4-triazol-3-ylsulfanyl)acetamide], the IC50 in series [1] amounted to 500 µM. In addition, the “concentrations” value with Vero cells was more than 100 µM. Turning to `Nc1nc2ncc(CNc3ccc(C(=O)O)cc3)nc2c(=O)[nH]1` [pteroic acid (PTA), pteroic acid], in the series with RTA, the IC50 is approximately 600 µM. In the case of `CS(=O)(=O)c1nc2ccccc2n1Cc1cccc2ccccc12` [Compound 4, 2-methylsulfonyl-1-(naphthalen-1-ylmethyl)benzimidazole], the “concentrations” value in the series with Vero cells is more than 30 µM. Turning to `Nc1cc(O)c(N)c(O)n1` [DDP, 2,5-diamino-4-6-dihydroxypyridine], the IC50 with RTA was 2200 µM.
